Test results as given in paper PMC2763079 (Molecular Imaging and Biology, 2009).

Experiments:
TSPO [1] = biological target: T1, TSPO (Rattus norvegicus, UniProt P16257); experiment: correlation of specific binding in control rats with [^3H]-PK11195 binding; type: in vivo
TSPO [2] = biological target: T1, TSPO; experiment: ex vivo biodistribution after PET scan; type: in vivo; conditions: 60 min after tracer injection

T1 sequence (P16257 whole entry): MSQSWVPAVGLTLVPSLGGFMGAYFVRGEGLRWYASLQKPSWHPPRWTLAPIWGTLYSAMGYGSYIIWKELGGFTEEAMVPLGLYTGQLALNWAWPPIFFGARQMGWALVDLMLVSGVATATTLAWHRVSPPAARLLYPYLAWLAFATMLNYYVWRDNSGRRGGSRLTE

R, correlation of specific binding in control rats with [^3H]-PK11195 binding (TSPO [1]; Pearson correlation, [^3H]-PK11195 binding from Kurumaji et al. [25]): 0.96
slope of the linear regression of specific binding vs [^3H]-PK11195 binding (TSPO [1]; control rats): 0.010
Ex vivo biodistribution SUV, bulbus olfactorius (TSPO [2]; HSE rats): 1.59 SUV
Ex vivo biodistribution SUV, cerebellum (TSPO [2]; HSE rats): 0.88 SUV
Ex vivo biodistribution SUV, medulla (TSPO [2]; HSE rats): 1.29 SUV
Ex vivo biodistribution SUV, pons (TSPO [2]; HSE rats): 1.54 SUV
Ex vivo biodistribution SUV, bulbus olfactorius (TSPO [2]; control rats): 1.20 SUV
Ex vivo biodistribution SUV, cerebellum (TSPO [2]; control rats): 0.51 SUV
Ex vivo biodistribution SUV, medulla (TSPO [2]; control rats): 0.61 SUV
Ex vivo biodistribution SUV, pons (TSPO [2]; control rats): 0.59 SUV
Structure (SMILES): CC[C@@H](C)N(C)C(=O)c1cc2ccccc2c(-c2ccccc2Cl)n1 [[^11C]-(R)-PK11195, (R)-N-methyl-N-(1-methylpropyl)-1-(2-chlorophenyl)isoquinoline-3-carboxamide]
